Assay [1] deals with intracellular S. aureus NRS384 in THP-1 macrophages. As to the kind of experiment: Intracellular killing assay 2 (rifamycin analogs, S. aureus in THP-1 macrophages). The conditions noted are these: Staphylococcus aureus, NRS384, 2 h; lowest concentration giving intracellular S. aureus below limit of detection (50 cfu/mL) in THP-1 macrophages; median of at least two experiments; read-out: S. aureus Intracellular killing MIC. The format is cell-based, Staphylococcus aureus. The method, then:
THP-1 monocytic cell line was grown in media (RMPI+10% FBS+1% Penicillin/Streptomycin), then seeded at a density of 1e5 cells/well in a 96 well plate and differentiated into macrophages for three days prior to infection using 200 nM PMA. An overnight culture of S. aureus NRS384 was grown in RPMI, washed twice with PBS and resuspended at 1e7 cfu/mL in PBS. THP-1 were washed with warm media (RMPI without FBS) to remove the Penicillin/Streptomycin and then infected with the S. aureus suspension at a multiplicity of infection of 10:1 (S. aureus: macrophages). Plates were spun at 300×g for 5 minutes to synchronize adhesion of the bacteria, then incubated at 37° C. for 2 hours. Free-floating bacteria were removed by washing 2× with warm media and remaining extracellular S. aureus were killed by addition of media containing gentamicin (50 ug/mL). […] The compounds were added in media containing 50 µg/mL gentamicin to prevent extracellular growth of S. aureus. After 2 hours, plates were washed 2× with warm RPMI without FBS, and 100 ul of THP-1 lysis buffer (0.1% Triton in PBS) was added to each well. S. aureus survival was enumerated by colony forming units through serial dilution and plating onto TSA.
The intracellular MIC value indicated represents the median value of at least two independent experiments, unless indicated otherwise.

A further assay has as its system S. aureus NRS384. As to the kind of experiment: Broth minimum inhibitory concentration (MIC) assay 2. The conditions noted are these: Staphylococcus aureus; S. aureus NRS384 in TSB, 24 hours at 37° C., OD600; median of at least two independent experiments; read-out: S. aureus Broth MIC. The format is cell-based, Staphylococcus aureus. The method, then:
To test the potency of rifamycin analogs of the disclosure in vitro, a broth growth inhibition assay was developed. For the assay, S. aureus NRS384 was grown in Tryptic Soy Broth (TSB) overnight, then sub-cultured 1:50 in fresh TSB and grown for an additional two hours. The culture was then pelleted via centrifugation and washed twice in PBS. The culture was then diluted to 1×10^6 cfu/mL in TSB and 100 μL of the suspension was added per well to a 2 mL dilution plate in triplicate. […] The plates were sealed and incubated at 37° C. with shaking for 24 hours, then 150 μL of each sample was added to 96 well microtiter plates and the OD600 nm was read on a Spectramax i3 Minimax 300.
The broth MIC experiments were assessed in at least two independent experiments and the median value is captured below unless indicated otherwise.

Twelve molecules from US11666658B2, “Rifamycin analogs and antibody-drug conjugates thereof” (Regeneron Pharmaceuticals, Inc., priority 2018, dated 2023) can be followed below.

Values after ≈ are worked out from the molar mass of the structure shown.

For `CO[C@H]1/C=C/O[C@@]2(C)Oc3c(C)c(O)c4c(=O)c(c5oc6cc(OCC7CCCN(C)C7)ccc6nc-5c4c3C2=O)NC(=O)/C(C)=C\C=C\[C@H](C)[C@H](O)[C@@H](C)[C@@H](O)[C@@H](C)[C@H](OC(C)=O)[C@@H]1C` (stereo partly drawn) [Analog 16f], the MIC stood at 1 µM (≈ 0.912 µg/mL) in assay [1] and 0.0156 µM (≈ 0.0142 µg/mL) in the assay on S. aureus NRS384.
Turning to `CO[C@H]1/C=C/O[C@@]2(C)Oc3c(C)c(O)c4c(=O)c(c5oc6cc(OCC7CCN(C)CC7)ccc6nc-5c4c3C2=O)NC(=O)/C(C)=C\C=C\[C@H](C)[C@H](O)[C@@H](C)[C@@H](O)[C@@H](C)[C@H](OC(C)=O)[C@@H]1C` [Analog 16g], the MIC in assay [1] was found to be 0.2 µM (≈ 0.182 µg/mL); in the assay with S. aureus NRS384, 0.0156 µM (≈ 0.0142 µg/mL).
For `CO[C@H]1/C=C/O[C@@]2(C)Oc3c(C)c(O)c4c(=O)c(c5oc6cc(OCCN7CCN(C)CC7)ccc6nc-5c4c3C2=O)NC(=O)/C(C)=C\C=C\[C@H](C)[C@H](O)[C@@H](C)[C@@H](O)[C@@H](C)[C@H](OC(C)=O)[C@@H]1C` [Analog 16h], the MIC is 1 µM (≈ 0.927 µg/mL) in assay [1] and 0.0156 µM (≈ 0.0145 µg/mL) in the assay on S. aureus NRS384.
With `CO[C@H]1/C=C/O[C@@]2(C)Oc3c(C)c(O)c4c(=O)c(c5oc6cc(OCCN7CCOCC7)ccc6nc-5c4c3C2=O)NC(=O)/C(C)=C\C=C\[C@H](C)[C@H](O)[C@@H](C)[C@@H](O)[C@@H](C)[C@H](OC(C)=O)[C@@H]1C` [Analog 16i], the MIC came to 1 µM (≈ 0.914 µg/mL) in assay [1] and 0.0156 µM (≈ 0.0143 µg/mL) with S. aureus NRS384.
The matching figures for `CO[C@H]1/C=C/O[C@@]2(C)Oc3c(C)c(O)c4c(=O)c(c5oc6cc(OCC7CCN(C)C7)ccc6nc-5c4c3C2=O)NC(=O)/C(C)=C\C=C\[C@H](C)[C@H](O)[C@@H](C)[C@@H](O)[C@@H](C)[C@H](OC(C)=O)[C@@H]1C` (stereo partly drawn) [Analog 16j]: 1 µM (≈ 0.898 µg/mL) and 0.0625 µM (≈ 0.0561 µg/mL).
Consider `CO[C@H]1/C=C/O[C@@]2(C)Oc3c(C)c(O)c4c(=O)c(c5oc6cc(OCCN7CCCC7)ccc6nc-5c4c3C2=O)NC(=O)/C(C)=C\C=C\[C@H](C)[C@H](O)[C@@H](C)[C@@H](O)[C@@H](C)[C@H](OC(C)=O)[C@@H]1C` [Analog 16k], for which the MIC in assay [1] was determined as 1 µM (≈ 0.898 µg/mL); in the assay with S. aureus NRS384, 0.000977 µM (≈ 0.000877 µg/mL).
For the molecule `CO[C@H]1/C=C/O[C@@]2(C)Oc3c(C)c(O)c4c(=O)c(c5oc6cc(OCC7CCCN7C)ccc6nc-5c4c3C2=O)NC(=O)/C(C)=C\C=C\[C@H](C)[C@H](O)[C@@H](C)[C@@H](O)[C@@H](C)[C@H](OC(C)=O)[C@@H]1C` (stereo partly drawn) [Analog 16l], the results for the MIC (in assay [1]; in the assay on S. aureus NRS384) were 1 µM (≈ 0.898 µg/mL) and 0.00391 µM (≈ 0.00351 µg/mL), respectively.
The matching figures for `CO[C@H]1/C=C/O[C@@]2(C)Oc3c(C)c(O)c4c(=O)c(c5oc6cc(OCCN7CCCCC7)ccc6nc-5c4c3C2=O)NC(=O)/C(C)=C\C=C\[C@H](C)[C@H](O)[C@@H](C)[C@@H](O)[C@@H](C)[C@H](OC(C)=O)[C@@H]1C` [Analog 16m]: 1 µM (≈ 0.912 µg/mL) and 0.00391 µM (≈ 0.00357 µg/mL).
The matching figures for `CO[C@H]1/C=C/O[C@@]2(C)Oc3c(C)c(O)c4c(=O)c(c5oc6cc(OCCN7CCCCCC7)ccc6nc-5c4c3C2=O)NC(=O)/C(C)=C\C=C\[C@H](C)[C@H](O)[C@@H](C)[C@@H](O)[C@@H](C)[C@H](OC(C)=O)[C@@H]1C` [Analog 16n]: 1 µM (≈ 0.926 µg/mL) and 0.0156 µM (≈ 0.0144 µg/mL).
`CO[C@H]1/C=C/O[C@@]2(C)Oc3c(C)c(O)c4c(=O)c(c5oc6cc(OCCCN(C)C)ccc6nc-5c4c3C2=O)NC(=O)/C(C)=C\C=C\[C@H](C)[C@H](O)[C@@H](C)[C@@H](O)[C@@H](C)[C@H](OC(C)=O)[C@@H]1C` [Analog 16o]: the figures for the MIC (in assay [1]; with S. aureus NRS384) were 0.2 µM (≈ 0.177 µg/mL) and 0.00391 µM (≈ 0.00346 µg/mL), respectively.
The corresponding values for `CO[C@H]1/C=C/O[C@@]2(C)Oc3c(C)c(O)c4c(=O)c(c5oc6cc(OCCCCN(C)C)ccc6nc-5c4c3C2=O)NC(=O)/C(C)=C\C=C\[C@H](C)[C@H](O)[C@@H](C)[C@@H](O)[C@@H](C)[C@H](OC(C)=O)[C@@H]1C` [Analog 16p] are 1 µM (≈ 0.9 µg/mL) and 0.0156 µM (≈ 0.014 µg/mL).
The corresponding values for `CO[C@H]1/C=C/O[C@@]2(C)Oc3c(C)c(O)c4c(=O)c(c5oc6cc(OCCN7CC8CCC7C8)ccc6nc-5c4c3C2=O)NC(=O)/C(C)=C\C=C\[C@H](C)[C@H](O)[C@@H](C)[C@@H](O)[C@@H](C)[C@H](OC(C)=O)[C@@H]1C` [Analog 16q] are 1 µM (≈ 0.924 µg/mL) and 0.00391 µM (≈ 0.00361 µg/mL).
